Measured values: the NIST ThermoML archive (doi:10.1021/je4007844)

Settings: Liquid; for viscosity: Concentric cylinders viscometry

CCCCCCn1cc[n+](C)c1.[Cl-] [1-hexyl-3-methylimidazolium chloride]
101.33 kPa, Vibrating tube method
Settings	mass density [kg/m3]
303.15 K	1035.1
313.15 K	1029.5
323.15 K	1023.9
333.15 K	1018.4
343.15 K	1012.8
353.15 K	1007.4
363.15 K	1002.1
373.15 K	997.1

101.33 kPa
Settings	viscosity [mPa·s]
323.15 K	1806
333.15 K	810.3
343.15 K	404.3
353.15 K	220.6
363.15 K	129.7
373.15 K	81.34

CCCCCC[n+]1ccn(C)c1.O=S(=O)([N-]S(=O)(=O)C(F)(F)F)C(F)(F)F
101.33 kPa
Settings	viscosity [mPa·s]
293.15 K	90.06
303.15 K	56.25
313.15 K	37.44
323.15 K	26.25
333.15 K	19.21
343.15 K	14.55
353.15 K	11.36
363.15 K	9.091
373.15 K	7.434

Settings	mass density [kg/m3]
293.15 K, 101.33 kPa, Vibrating tube method	1376.3
303.15 K, 101.33 kPa, Vibrating tube method	1367.1
312.6 K, 100 kPa, Bellows volumetry	1358.5
312.6 K, 10000 kPa, Bellows volumetry	1365.7
312.6 K, 20000 kPa, Bellows volumetry	1373
312.6 K, 30000 kPa, Bellows volumetry	1380.1
312.6 K, 40000 kPa, Bellows volumetry	1386.7
312.6 K, 50000 kPa, Bellows volumetry	1392.8
312.6 K, 60000 kPa, Bellows volumetry	1399
312.6 K, 70000 kPa, Bellows volumetry	1404.6
312.6 K, 80000 kPa, Bellows volumetry	1410.2
312.6 K, 90000 kPa, Bellows volumetry	1415.5
312.6 K, 100000 kPa, Bellows volumetry	1420.7
312.6 K, 110000 kPa, Bellows volumetry	1425.8
312.6 K, 120000 kPa, Bellows volumetry	1430.8
312.6 K, 130000 kPa, Bellows volumetry	1435.5
312.6 K, 140000 kPa, Bellows volumetry	1440.1
312.6 K, 150000 kPa, Bellows volumetry	1444.5
312.6 K, 160000 kPa, Bellows volumetry	1448.9
312.6 K, 170000 kPa, Bellows volumetry	1453
312.6 K, 180000 kPa, Bellows volumetry	1457.6
312.6 K, 190000 kPa, Bellows volumetry	1461.6
312.6 K, 200000 kPa, Bellows volumetry	1465.9
313.15 K, 101.33 kPa, Vibrating tube method	1358
323.15 K, 101.33 kPa, Vibrating tube method	1348.9
332.4 K, 100 kPa, Bellows volumetry	1340
332.4 K, 10000 kPa, Bellows volumetry	1348.1
332.4 K, 20000 kPa, Bellows volumetry	1355.9
332.4 K, 30000 kPa, Bellows volumetry	1363.3
332.4 K, 40000 kPa, Bellows volumetry	1370.4
332.4 K, 50000 kPa, Bellows volumetry	1377
332.4 K, 60000 kPa, Bellows volumetry	1383.2
332.4 K, 70000 kPa, Bellows volumetry	1389.3
332.4 K, 80000 kPa, Bellows volumetry	1395.1
332.4 K, 90000 kPa, Bellows volumetry	1400.5
332.4 K, 100000 kPa, Bellows volumetry	1406.3
332.4 K, 110000 kPa, Bellows volumetry	1411.5
332.4 K, 120000 kPa, Bellows volumetry	1416.5
332.4 K, 130000 kPa, Bellows volumetry	1421.3
332.4 K, 140000 kPa, Bellows volumetry	1426.1
332.4 K, 150000 kPa, Bellows volumetry	1430.9
332.4 K, 160000 kPa, Bellows volumetry	1435.4
332.4 K, 170000 kPa, Bellows volumetry	1439.7
332.4 K, 180000 kPa, Bellows volumetry	1444
332.4 K, 190000 kPa, Bellows volumetry	1448.4
332.4 K, 200000 kPa, Bellows volumetry	1452.6
333.15 K, 101.33 kPa, Vibrating tube method	1339.9
343.15 K, 101.33 kPa, Vibrating tube method	1331
352.3 K, 100 kPa, Bellows volumetry	1322.2
352.3 K, 10000 kPa, Bellows volumetry	1330.9
352.3 K, 20000 kPa, Bellows volumetry	1339.3
352.3 K, 30000 kPa, Bellows volumetry	1347.3
352.3 K, 40000 kPa, Bellows volumetry	1354.5
352.3 K, 50000 kPa, Bellows volumetry	1361.5
352.3 K, 60000 kPa, Bellows volumetry	1368.2
352.3 K, 70000 kPa, Bellows volumetry	1374.6
352.3 K, 80000 kPa, Bellows volumetry	1380.6
352.3 K, 90000 kPa, Bellows volumetry	1386.5
352.3 K, 100000 kPa, Bellows volumetry	1392
352.3 K, 110000 kPa, Bellows volumetry	1397.5
352.3 K, 120000 kPa, Bellows volumetry	1402.7
352.3 K, 130000 kPa, Bellows volumetry	1408
352.3 K, 140000 kPa, Bellows volumetry	1412.8
352.3 K, 150000 kPa, Bellows volumetry	1417.6
352.3 K, 160000 kPa, Bellows volumetry	1422.1
352.3 K, 170000 kPa, Bellows volumetry	1426.8
352.3 K, 180000 kPa, Bellows volumetry	1431.4
352.3 K, 190000 kPa, Bellows volumetry	1435.5
352.3 K, 200000 kPa, Bellows volumetry	1439.9
353.15 K, 101.33 kPa, Vibrating tube method	1322.2
363.15 K, 101.33 kPa, Vibrating tube method	1313.3
372.5 K, 100 kPa, Bellows volumetry	1304.4
372.5 K, 10000 kPa, Bellows volumetry	1313.7
372.5 K, 20000 kPa, Bellows volumetry	1322.6
372.5 K, 30000 kPa, Bellows volumetry	1330.9
372.5 K, 40000 kPa, Bellows volumetry	1338.6
372.5 K, 50000 kPa, Bellows volumetry	1346
372.5 K, 60000 kPa, Bellows volumetry	1353
372.5 K, 70000 kPa, Bellows volumetry	1359.6
372.5 K, 80000 kPa, Bellows volumetry	1366
372.5 K, 90000 kPa, Bellows volumetry	1372.1
372.5 K, 100000 kPa, Bellows volumetry	1378
372.5 K, 110000 kPa, Bellows volumetry	1383.7
372.5 K, 120000 kPa, Bellows volumetry	1389.1
372.5 K, 130000 kPa, Bellows volumetry	1394.3
372.5 K, 140000 kPa, Bellows volumetry	1399.4
372.5 K, 150000 kPa, Bellows volumetry	1404.4
372.5 K, 160000 kPa, Bellows volumetry	1409.3
372.5 K, 170000 kPa, Bellows volumetry	1414
372.5 K, 180000 kPa, Bellows volumetry	1418.5
372.5 K, 190000 kPa, Bellows volumetry	1423.1
372.5 K, 200000 kPa, Bellows volumetry	1427.4
373.15 K, 101.33 kPa, Vibrating tube method	1304.7
392.7 K, 100 kPa, Bellows volumetry	1286.8
392.7 K, 10000 kPa, Bellows volumetry	1296.8
392.7 K, 20000 kPa, Bellows volumetry	1306.3
392.7 K, 30000 kPa, Bellows volumetry	1315.1
392.7 K, 40000 kPa, Bellows volumetry	1323.4
392.7 K, 50000 kPa, Bellows volumetry	1331.1
392.7 K, 60000 kPa, Bellows volumetry	1338.5
392.7 K, 70000 kPa, Bellows volumetry	1345.4
392.7 K, 80000 kPa, Bellows volumetry	1352.1
392.7 K, 90000 kPa, Bellows volumetry	1358.3
392.7 K, 100000 kPa, Bellows volumetry	1364.5
392.7 K, 110000 kPa, Bellows volumetry	1370.3
392.7 K, 120000 kPa, Bellows volumetry	1376
392.7 K, 130000 kPa, Bellows volumetry	1381.5
392.7 K, 140000 kPa, Bellows volumetry	1386.8
392.7 K, 150000 kPa, Bellows volumetry	1391.9
392.7 K, 160000 kPa, Bellows volumetry	1397
392.7 K, 170000 kPa, Bellows volumetry	1401.8
392.7 K, 180000 kPa, Bellows volumetry	1406.5
392.7 K, 190000 kPa, Bellows volumetry	1411.1
392.7 K, 200000 kPa, Bellows volumetry	1415.7
412.7 K, 100 kPa, Bellows volumetry	1269.8
412.7 K, 10000 kPa, Bellows volumetry	1280.4
412.7 K, 20000 kPa, Bellows volumetry	1290.4
412.7 K, 30000 kPa, Bellows volumetry	1299.8
412.7 K, 40000 kPa, Bellows volumetry	1308.4
412.7 K, 50000 kPa, Bellows volumetry	1316.5
412.7 K, 60000 kPa, Bellows volumetry	1324.3
412.7 K, 70000 kPa, Bellows volumetry	1331.5
412.7 K, 80000 kPa, Bellows volumetry	1338.5
412.7 K, 90000 kPa, Bellows volumetry	1345
412.7 K, 100000 kPa, Bellows volumetry	1351.3
412.7 K, 110000 kPa, Bellows volumetry	1357.5
412.7 K, 120000 kPa, Bellows volumetry	1363.2
412.7 K, 130000 kPa, Bellows volumetry	1368.9
412.7 K, 140000 kPa, Bellows volumetry	1374.3
412.7 K, 150000 kPa, Bellows volumetry	1379.8
412.7 K, 160000 kPa, Bellows volumetry	1384.9
412.7 K, 170000 kPa, Bellows volumetry	1389.9
412.7 K, 180000 kPa, Bellows volumetry	1394.7
412.7 K, 190000 kPa, Bellows volumetry	1399.4
412.7 K, 200000 kPa, Bellows volumetry	1404
432.6 K, 100 kPa, Bellows volumetry	1252.4
432.6 K, 10000 kPa, Bellows volumetry	1263.7
432.6 K, 20000 kPa, Bellows volumetry	1274.3
432.6 K, 30000 kPa, Bellows volumetry	1284.2
432.6 K, 40000 kPa, Bellows volumetry	1293.3
432.6 K, 50000 kPa, Bellows volumetry	1301.7
432.6 K, 60000 kPa, Bellows volumetry	1309.7
432.6 K, 70000 kPa, Bellows volumetry	1317.3
432.6 K, 80000 kPa, Bellows volumetry	1324.5
432.6 K, 90000 kPa, Bellows volumetry	1331.2
432.6 K, 100000 kPa, Bellows volumetry	1337.8
432.6 K, 110000 kPa, Bellows volumetry	1344.1
432.6 K, 120000 kPa, Bellows volumetry	1350.3
432.6 K, 130000 kPa, Bellows volumetry	1356.1
432.6 K, 140000 kPa, Bellows volumetry	1361.9
432.6 K, 150000 kPa, Bellows volumetry	1367.3
432.6 K, 160000 kPa, Bellows volumetry	1372.4
432.6 K, 170000 kPa, Bellows volumetry	1377.5
432.6 K, 180000 kPa, Bellows volumetry	1382.5
432.6 K, 190000 kPa, Bellows volumetry	1387.4
432.6 K, 200000 kPa, Bellows volumetry	1392.2
452.3 K, 100 kPa, Bellows volumetry	1235.6
452.3 K, 10000 kPa, Bellows volumetry	1247.6
452.3 K, 20000 kPa, Bellows volumetry	1258.8
452.3 K, 30000 kPa, Bellows volumetry	1269.2
452.3 K, 40000 kPa, Bellows volumetry	1278.8
452.3 K, 50000 kPa, Bellows volumetry	1287.6
452.3 K, 60000 kPa, Bellows volumetry	1295.9
452.3 K, 70000 kPa, Bellows volumetry	1303.9
452.3 K, 80000 kPa, Bellows volumetry	1311.3
452.3 K, 90000 kPa, Bellows volumetry	1318.3
452.3 K, 100000 kPa, Bellows volumetry	1325.1
452.3 K, 110000 kPa, Bellows volumetry	1331.8
452.3 K, 120000 kPa, Bellows volumetry	1338
452.3 K, 130000 kPa, Bellows volumetry	1344.1
452.3 K, 140000 kPa, Bellows volumetry	1349.9
452.3 K, 150000 kPa, Bellows volumetry	1355.5
452.3 K, 160000 kPa, Bellows volumetry	1360.8
452.3 K, 170000 kPa, Bellows volumetry	1366.2
452.3 K, 180000 kPa, Bellows volumetry	1371.3
452.3 K, 190000 kPa, Bellows volumetry	1376.4
452.3 K, 200000 kPa, Bellows volumetry	1381.2
